Source: patent US10858335B2 (Rigel Pharmaceuticals, Inc., priority 2014, dated 2020)

test system: GDF8 signaling (p-SMAD-3 (Ser423/425)); test: AlphaScreen SureFire SMAD3 (p-Ser423/425) assay, GDF8-stimulated cells (GDF pSMAD); format: cell-based; conditions: MPC11; GDF8-stimulated; p-SMAD3 AlphaScreen; read-out: GDF pSMAD (MPC11) (inhibition of GDF8 signaling)

SMILES	IC50
Cc1cc(-c2ncccc2-c2ccc3ncc(C(=O)NC4CC5CCC(C4)N5C)n3c2)ccc1F (stereo not drawn) [compound 712, exo-6-(2-(4-Fluoro-3-methylphenyl)pyridin-3-yl)-N-(8-methyl-8-azabicyclo[3.2.1]octan-3-yl)imidazo[1,2-a]pyridine-3-carboxamide]	4.06 µM

same assay, conditions: Mus musculus, MPC-11, GDF8-stimulated pSMAD3, MPC11; tested as the salt form given; read-out: GDF pSMAD (MPC11) (μM), inhibition of GDF8 signaling

SMILES	IC50
Cc1cnc(-c2cccc(O)c2)c(-c2ccc3ncnc(N)c3c2)c1 [compound 991, 3-(3-(4-aminoquinazolin-6-yl)-5-methylpyridin-2-yl)phenol]	20.2 µM
Fc1ccc(Cl)cc1-c1ncccc1-c1ccc2ncnc(Nc3cn[nH]c3)c2c1 [compound 1033, 6-(2-(5-chloro-2-fluorophenyl)pyridin-3-yl)-N-(1H-pyrazol-4-yl)quinazolin-4-amine]	1.58 µM
Cc1cc(-c2ncccc2-c2ccc3ncc(C#N)n3c2)c(C)cc1F [compound 1063]	4.45 µM
Nc1ncnc2ccc(-c3cccnc3-c3ccc(F)c(OC(F)F)c3)cc12 [compound 1010, 6-(2-(3-(difluoromethoxy)-4-fluorophenyl)pyridin-3-yl)quinazolin-4-amine]	0.562 µM
Cc1cc(-c2ncccc2-c2ccc3ncnc(N)c3c2)ccc1F [compound 1021, 6-(2-(4-fluoro-3-methylphenyl)pyridin-3-yl)quinazolin-4-amine]	0.175 µM

same assay, conditions: Mus musculus, MPC-11, MPC11; GDF8-stimulated; p-SMAD3 AlphaScreen; read-out: GDF pSMAD (MPC11) (inhibition of GDF8 signaling)

SMILES	IC50
Cc1cnc2ccc(-c3cccnc3-c3ccc(F)c(Cl)c3)cn12 [compound 764, 6-(2-(3-Chloro-4-fluorophenyl)pyridin-3-yl)-3-methylimidazo[1,2-a]pyridine]	0.275 µM
COc1ccc(Nc2ncnc3ccc(-c4cccnc4-c4ccc(F)c(C)c4)cc23)cc1 [compound 407, 6-(2-(4-Fluoro-3-methylphenyl)pyridin-3-yl)-N-(4-methoxyphenyl)quinazolin-4-amine]	2.47 µM
Cc1cc(-c2ncccc2-c2ccn3c(C(=O)NCCN4CCN(C)CC4)ncc3c2)ccc1F [compound 265, 7-(2-(4-Fluoro-3-methylphenyl)pyridin-3-yl)-N-(2-(4-methylpiperazin-1-yl)ethyl)imidazo[1,5-a]pyridine-3-carboxamide]	8.12 µM
Cc1cc(-c2ncccc2-c2ccc3cnc(C(=O)NCCN4CCCC4)n3c2)ccc1F [compound 272, 6-(2-(4-Fluoro-3-methylphenyl)pyridin-3-yl)-N-(2-(pyrrolidin-1-yl)ethyl)imidazo[1,5-a]pyridine-3-carboxamide]	3.4 µM
c1cc(-c2ncccc2-c2ccc3nccc(N4CCOCC4)c3c2)cc(C2CC2)c1 [compound 549, 4-(6-(2-(3-Cyclopropylphenyl)pyridin-3-yl)quinolin-4-yl)morpholine]	5.01 µM
Cc1cccc(-c2ncccc2-c2cc3cn[nH]c3cc2C)c1 [Compound 174, 6-Methyl-5-(2-m-tolylpyridin-3-yl)-1H-indazole]	1.18 µM
COCc1cnc(-c2ccc(F)c(C)c2)c(-c2ccc3nccnc3c2)c1 [compound 228, 6-(2-(4-Fluoro-3-methylphenyl)-5-(methoxymethyl)pyridin-3-yl)quinoxaline]	9.76 µM
Clc1cccc(-c2ncccc2-c2ccc3ncnn3n2)c1 [compound 954, 6-(2-(3-Chlorophenyl)pyridin-3-yl)-[1,2,4]triazolo[1,5-b]pyridazine]	0.438 µM
Fc1cc(F)c(-c2ncccc2-c2ccc3nccn3c2)cc1F [compound 694, 6-(2-(2,4,5-Trifluorophenyl)pyridin-3-yl)imidazo[1,2-a]pyridine]	0.794 µM
Cc1cc(-c2ncccc2-c2ccn3ncc(C(=O)NC4CC(C)(C)N(C)C(C)(C)C4)c3c2)ccc1F [compound 703, 5-(2-(4-Fluoro-3-methylphenyl)pyridin-3-yl)-N-(1,2,2,6,6-pentamethylpiperidin-4-yl)pyrazolo[1,5-a]pyridine-3-carboxamide]	0.208 µM
CCOc1cnc(-c2cccc(C)c2)c(-c2ccc3[nH]ncc3c2)c1 [Compound 3, 5-(5-Ethoxy-2-m-tolylpyridin-3-yl)-1H-indazole]	1.3 µM
Cc1cc(-c2ncccc2-c2ccc3cnc(-c4ccncc4)n3c2)ccc1F [compound 282, 6-(2-(4-Fluoro-3-methylphenyl)pyridin-3-yl)-3-(pyridin-4-yl)imidazo[1,5-a]pyridine]	19.4 µM
Cc1cc(-c2ncccc2-c2ccc3onc(N)c3c2)ccc1F [compound 795, 5-(2-(4-Fluoro-3-methylphenyl)pyridin-3-yl)benzo[d]isoxazol-3-amine]	8.11 µM
Cc1cc(-c2ncccc2-c2ccc3ncn(CCN4CCOCC4)c3c2)ccc1F [Compound 35, 6-(2-(4-Fluoro-3-methylphenyl)pyridin-3-yl)-1-(2-morpholinoethyl)-1H-benzo[d]imidazole]	10.8 µM
Cc1cc(-c2ncccc2-c2ccc3ncn(CCN4CCN(C)CC4)c3c2)ccc1F [Compound 37, 6-(2-(4-Fluoro-3-methylphenyl)pyridin-3-yl)-1-(2-(4-methylpiperazin-1-yl)ethyl)-1H-benzo[d]imidazole]	18.1 µM
Cc1cc(-c2ncccc2-c2ccc3[nH]ncc3c2)ccc1N [Compound 90, 4-(3-(1H-Indazol-5-yl)pyridin-2-yl)-2-methylbenzenamine]	2.61 µM
Cc1cc(-c2ncccc2-c2ccc3ncc(C(=O)OC[C@H](Cc4c[nH]c5ccccc45)NC(=O)OC(C)(C)C)n3c2)ccc1F [compound 614, (S)-2-((tert-Butoxycarbonyl)amino)-3-(1H-indol-3-yl)propyl 6-(2-(4-fluoro-3-methylphenyl)pyridin-3-yl)imidazo[1,2-a]pyridine-3-carboxylate]	5.56 µM
c1cc(-c2ncccc2-c2ccc3nccn3c2)cc(C2CC2)c1 [Compound 193, 6-(2-(3-Cyclopropylphenyl)pyridin-3-yl)H-imidazo[1,2-a]pyridine]	0.243 µM

SMILES	IC50
Cc1cc(-c2nc(N)ccc2-c2ccc3[nH]ncc3c2)ccc1F [Compound 21, 6-(4-Fluoro-3-methylphenyl)-5-(1H-indazol-5-yl)pyridin-2-amine]	1.92 µM
Cn1cnc2ccc(-c3cccnc3-c3cc(Cl)ccc3Cl)cc21 [compound 870, 6-(2-(2,5-Dichlorophenyl)pyridin-3-yl)-1-methyl-1H-benzo[d]imidazole]	0.557 µM
Cc1cc(-c2ncccc2-c2ccc3ncnn3n2)ccc1F [compound 952, 6-(2-(4-Fluoro-3-methylphenyl)pyridin-3-yl)-[1,2,4]triazolo[1,5-b]pyridazine]	0.391 µM
CC(C)Oc1cccc(-c2ncccc2-c2ccc3ncnc(N)c3c2)c1 [compound 480, 6-(2-(3-isopropoxyphenyl)pyridin-3-yl)quinazolin-4-amine]	1.21 µM
Cc1cc(-c2ncccc2-c2ccnc(Nc3ccc(N4CCOCC4)cc3)n2)ccc1F [compound 904, 4-(2-(4-Fluoro-3-methylphenyl)pyridin-3-yl)-N-(4-morpholinophenyl)pyrimidin-2-amine]	9.07 µM
Nc1ncnc2ccc(-c3cccnc3-c3ccc(F)c(Cl)c3)cc12 [compound 394, 6-(2-(3-Chloro-4-fluorophenyl)pyridin-3-yl)quinazolin-4-amine]	0.119 µM
Cc1cc(-c2ncc(N)cc2-c2ccc3[nH]ncc3c2)ccc1F [Compound 17, 6-(4-Fluoro-3-methylphenyl)-5-(1H-indazol-5-yl)pyridin-3-amine]	0.336 µM
COc1cc(NC(=O)c2cnc3ccc(-c4cccnc4-c4cccc(C5CC5)c4)cn23)cc(OC)c1OC [compound 575, 6-(2-(3-Cyclopropylphenyl)pyridin-3-yl)-N-(3,4,5-trimethoxyphenyl)imidazo[1,2-a]pyridine-3-carboxamide]	1.17 µM
Fc1ccc(-c2ncccc2-c2ccc3[nH]ncc3c2)cc1 [Compound 66, 5-[2-(4-Fluorophenyl)pyridin-3-yl]-1H-indazole]	1.78 µM
Cc1cc(-c2ncccc2-c2ccc3ncc(=O)[nH]c3c2)ccc1F [compound 891, 7-(2-(4-Fluoro-3-methylphenyl)pyridin-3-yl)quinoxalin-2(1H)-one]	0.632 µM
Cc1cc(-c2ncccc2-c2ccc3ncc(C)n3c2)ccc1F [compound 527, 6-(2-(4-Fluoro-3-methylphenyl)pyridin-3-yl)-3-methylimidazo[1,2-a]pyridine]	0.137 µM
Cc1cc(-c2ncccc2-c2ccc3ncc(C(=O)NCCN(C)C)n3c2)ccc1F [compound 607, N-(2-(Dimethylamino)ethyl)-6-(2-(4-fluoro-3-methylphenyl)pyridin-3-yl)imidazo[1,2-a]pyridine-3-carboxamide]	0.705 µM
Cc1cc(-c2ncccc2-c2ccn3nccc3n2)ccc1F [compound 910, 5-(2-(4-Fluoro-3-methylphenyl)pyridin-3-yl)pyrazolo[1,5-a]pyrimidine]	0.0972 µM
Cc1cc(-c2ncc(-c3cccc(S(N)(=O)=O)c3)cc2-c2ccc3ncsc3c2)ccc1F [compound 347, 3-(5-(Benzo[d]thiazol-6-yl)-6-(4-fluoro-3-methylphenyl)pyridin-3-yl)benzenesulfonamide]	1.49 µM
Cc1cccc(-c2ncccc2-c2ccc3ncc(N(C)C)n3c2)c1 [compound 552, N,N-Dimethyl-6-(2-(m-tolyl)pyridin-3-yl)imidazo[1,2-a]pyridin-3-amine]	4.06 µM
Cn1cnc2ccc(-c3cccnc3-c3cccc(C4CC4)c3)cc21 [Compound 200, 6-(2-(3-Cyclopropylphenyl)pyridin-3-yl)-1-methyl-1H-benzo[d]imidazole]	0.26 µM
COc1ncnc2ccc(-c3cccnc3-c3cc(Cl)c(F)cc3F)cc12 [compound 821, 6-(2-(5-Chloro-2,4-difluorophenyl)pyridin-3-yl)-4-methoxyquinazoline]	2.16 µM
c1cc(-c2ncccc2-c2cnc3[nH]ncc3c2)cc(C2CC2)c1 [Compound 152, 5-(2-(3-Cyclopropylphenyl)pyridin-3-yl)-1H-pyrazolo[3,4-b]pyridine]	0.0487 µM
